The results in this text go back to ChEMBL document CHEMBL1201862, “PubChem BioAssay data set” (2004).

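How tested: cells in 96-well plates exposed to compound for 48 hours at five concentrations. Abbreviation: GI50, concentration required for 50% inhibition of growth.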 The source made the active and inactive calls. No stated cut-off is given here; in the data, active = GI50 up to about 1.1 µM and inactive = higher.

Test systems include HCT-116; NCI-H522; UACC-257; Malme-3M; HL-60; UO-31; NCI-H460; SW-620; OVCAR-5; K562; UACC-62; U-251; SN12C; SF-295; NCI-H226; SNB-19; SK-MEL-2; SF-539; DU-145.
Holding throughout (assay): NCI-60 cell line screen, 48 h

Turning to `COc1ccc(S(=O)(=O)N/N=C(\C)CN2C(=O)c3ccccc3C2=O)cc1OC`, the GI50 in the assay on HCT-116, in the assay on NCI-H522, with UACC-257, in the assay with Malme-3M, with HL-60 and in the assay with UO-31 was > 100 µM (inactive) in each case. Also, the GI50 in the assay on NCI-H460, in the assay with SW-620, in the assay on OVCAR-5, with K562, with UACC-62 and in the assay on U-251 was > 100 µM (inactive) each time. Besides, the GI50 in the assay on SN12C, in the assay on SF-295, in the assay on NCI-H226, with SNB-19, in the assay with SK-MEL-2 and with SF-539 was > 100 µM (inactive) throughout.
Regarding `Cc1ccc(S(=O)(=O)N/N=C(\c2nc3ccc([N+](=O)[O-])cc3nc2O)C(O)c2ccccc2Cl)cc1` (stereo not given), the GI50 was > 100 µM (inactive) in the assay with HCT-116; 6.93 µM (inactive) in the assay with NCI-H522; > 100 µM (inactive) in the assay with UACC-257; > 100 µM (inactive) in the assay on Malme-3M; 27.5 µM (inactive) in the assay on HL-60; > 100 µM (inactive) in the assay on UO-31. Moreover, the GI50 in the assay with NCI-H460 is > 100 µM (inactive); in the assay with SW-620, > 100 µM (inactive); in the assay on OVCAR-5, > 100 µM (inactive); with K562, 28.2 µM (inactive); in the assay on UACC-62, 86.9 µM (inactive); with U-251, > 100 µM (inactive). Moreover, the GI50 in the assay on SN12C, in the assay with SF-295, with NCI-H226, with SNB-19, with SK-MEL-2 and in the assay on SF-539 was > 100 µM (inactive) in each case.
As for `CCC1(OC(C)=O)C(=O)OCc2c1cc1n(c2=O)Cc2cc3ccccc3nc2-1` (stereo not given), the GI50 in the assay on HCT-116 is 2.03 µM (inactive); with NCI-H522, 1.19 µM (inactive); in the assay with UACC-257, 4.45 µM (inactive); in the assay on Malme-3M it was 3.44 µM (inactive); with HL-60, 0.421 µM (active); in the assay with UO-31, 1 µM (active). In addition, the GI50 with NCI-H460 was 0.262 µM (active); in the assay with SW-620, 5.83 µM (inactive); with OVCAR-5, 2.37 µM (inactive); with K562 it was 3.1 µM (inactive); in the assay with UACC-62, 0.251 µM (active); in the assay on U-251 it was 0.289 µM (active). Further, the GI50 with SN12C is 0.638 µM (active); with SF-295 it was 0.778 µM (active); in the assay on NCI-H226, 0.869 µM (active); in the assay on SNB-19 it was 0.962 µM (active); in the assay on SK-MEL-2 it was > 80 µM (inactive); with SF-539 it was 0.568 µM (active).
Regarding `N/N=C(\c1nc2ccc(Cl)cc2nc1O)C(O)c1ccc(Cl)c(Cl)c1` (stereo not given), the GI50 with HCT-116 was 48.1 µM (inactive); in the assay with NCI-H522, > 100 µM (inactive); in the assay with UACC-257 it was > 100 µM (inactive); in the assay with Malme-3M, > 100 µM (inactive); in the assay with HL-60, > 100 µM (inactive); with UO-31 it was > 100 µM (inactive). Also, the GI50 with NCI-H460 is > 100 µM (inactive); in the assay with SW-620 it was 59.2 µM (inactive); in the assay on OVCAR-5, > 100 µM (inactive); with K562 it was > 100 µM (inactive); in the assay on UACC-62, > 100 µM (inactive); in the assay with U-251, > 100 µM (inactive). Further, the GI50 with SN12C, in the assay with SF-295, in the assay with NCI-H226, with SNB-19, in the assay with SK-MEL-2 and with SF-539 was > 100 µM (inactive) throughout.
For the compound `C=C1CC2C(=O)N(c3ccccc3)C(=O)C2CC1n1[nH]c(=O)n(Cc2ccccc2)c1=O` (stereo not given), the GI50 in the assay on HCT-116, in the assay on NCI-H522, in the assay on UACC-257, in the assay with Malme-3M, with HL-60 and with UO-31 was > 100 µM (inactive) in each case. Besides, the GI50 in the assay on NCI-H460, in the assay with SW-620, in the assay with OVCAR-5, with K562, with UACC-62 and in the assay with U-251 was > 100 µM (inactive) in each case. Further, the GI50 with SN12C, in the assay on SF-295, with NCI-H226, in the assay on SNB-19, in the assay on SK-MEL-2 and with SF-539 was > 100 µM (inactive) throughout.
In the case of `Cc1cc(-c2nc3ccccc3s2)ccc1NS(=O)(=O)O`, the GI50 with HCT-116 is > 4.65 µM (inactive); in the assay with UACC-257 it was > 6.43 µM (inactive); in the assay with Malme-3M, > 6.56 µM (inactive); in the assay on UO-31, > 7.82 µM (inactive); in the assay on DU-145, > 22.2 µM (inactive); in the assay with SW-620, > 4.65 µM (inactive). In addition, the GI50 was > 4.65 µM (inactive) in the assay on OVCAR-5; 4.65 µM (inactive) in the assay on K562; > 12.2 µM (inactive) in the assay on UACC-62; > 5.92 µM (inactive) in the assay with SN12C; > 43.1 µM (inactive) in the assay on SF-295; > 39.9 µM (inactive) in the assay on NCI-H226. In addition, the GI50 in the assay with SNB-19 was > 24.4 µM (inactive); with SF-539 it was 0.0508 µM (active).
As for `COC(=O)C(C(=O)C(=O)Nc1ccccc1C)c1nc2ccc([N+](=O)[O-])cc2nc1O` (stereo not given), the GI50 with HCT-116 was > 100 µM (inactive); with NCI-H522 it was 47.3 µM (inactive); with UACC-257, > 100 µM (inactive); with Malme-3M it was > 100 µM (inactive); in the assay on HL-60 it was > 100 µM (inactive); with UO-31, > 100 µM (inactive). Moreover, the GI50 in the assay with NCI-H460, with SW-620, with OVCAR-5, in the assay with K562, in the assay on UACC-62 and in the assay with U-251 was > 100 µM (inactive) in each case. In addition, the GI50 in the assay with SN12C, in the assay with SF-295, with NCI-H226, with SNB-19, with SK-MEL-2 and in the assay with SF-539 was > 100 µM (inactive) each time.
`COc1ccccc1NC(=O)C(=O)C1C(=O)Nc2ccccc2[S+]1[O-]` (stereo not given): the GI50 in the assay with HCT-116, in the assay on NCI-H522, in the assay on UACC-257, with Malme-3M, with HL-60 and with UO-31 was > 100 µM (inactive) in each case. In addition, the GI50 with NCI-H460, with SW-620, in the assay with OVCAR-5, in the assay on K562, with UACC-62 and in the assay with U-251 was > 100 µM (inactive) throughout. Further, the GI50 with SN12C, in the assay with SF-295, in the assay on NCI-H226, with SNB-19, with SK-MEL-2 and in the assay with SF-539 was > 100 µM (inactive) each time.
